Data reported in patent publication US11377442B2, “Small molecule agonists and antagonists of NR2F6 activity” (ZANDER THERAPEUTICS, INC., priority 2016, dated 2022).
Where “and” joins values, the source holds several entries; their conditions need not be identical. Identical values can stand only once. Like-named read-outs stand apart in the source and are kept apart here.

What was measured:
Type in all cases: cell-based
[1] = molecular target: T1, NR2F6 (Homo sapiens, UniProt P10588); assay: NR2F6 agonist screening, Firefly signal cmpd/DMSO
T1 construct: expressed in transfected cells; also transient transfection
T1 sequence (P10588 1-404): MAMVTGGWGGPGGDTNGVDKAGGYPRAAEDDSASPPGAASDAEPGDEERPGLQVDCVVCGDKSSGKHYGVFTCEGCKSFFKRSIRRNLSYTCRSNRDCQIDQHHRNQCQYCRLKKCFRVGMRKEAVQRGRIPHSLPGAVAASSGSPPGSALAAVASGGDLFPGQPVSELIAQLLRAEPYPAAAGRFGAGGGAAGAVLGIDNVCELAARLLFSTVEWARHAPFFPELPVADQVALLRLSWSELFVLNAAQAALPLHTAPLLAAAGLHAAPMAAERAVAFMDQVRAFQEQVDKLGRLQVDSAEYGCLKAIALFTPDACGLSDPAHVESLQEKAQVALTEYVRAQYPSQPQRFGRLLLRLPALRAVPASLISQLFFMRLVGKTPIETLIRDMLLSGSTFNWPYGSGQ

[2] = test system: Renilla; assay: Renilla signal in NR2F6 agonist screening, cmpd/DMSO; conditions: Renilla, F4
[3] = test system: HEK293 pGL4; assay: Firefly_pGL signal, cmpd/DMSO (pGL4 control cells); conditions: Homo sapiens
[4] = molecular target: T2, NR2F6 LBD (Homo sapiens, UniProt P10588); assay: NR2F6 LBD transient transfection; conditions: LBD
T2 construct: expressed in transfected cells
T2 sequence (P10588 165-393 limits assumed): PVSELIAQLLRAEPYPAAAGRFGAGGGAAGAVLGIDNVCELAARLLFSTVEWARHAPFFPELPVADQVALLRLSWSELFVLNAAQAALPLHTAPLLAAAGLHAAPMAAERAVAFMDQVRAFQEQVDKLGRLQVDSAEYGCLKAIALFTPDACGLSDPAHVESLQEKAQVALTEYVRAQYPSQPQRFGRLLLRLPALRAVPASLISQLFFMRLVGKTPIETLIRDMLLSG
In short: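 LBD-transfected cells treated at 40, 10, 2 and 0.5 μM (4 replicates); cytotoxicity measured in parallel, normalized to DMSO (0%) and zero signal (100%). Higher concentrations excluded where signal loss reflected toxicity.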

[5] = read-out: Renilla, F4, cmpd/DMSO (mean)
[6] = 1% FBS, read-out: Renilla, F4, 1% FBS, cmpd/DMSO (mean)
[7] = 10% FBS, read-out: Renilla, F4, 10% FBS, cmpd/DMSO (mean)

- Firefly F4, cmpd/DMSO (mean) ([1]; 0.5 uM): 1.2
- Firefly F4, cmpd/DMSO (mean) ([1]; 2 uM): 1.1
- Firefly F4, cmpd/DMSO (mean) ([1]; 10 uM): 2.2
- Firefly F4, cmpd/DMSO (mean) ([1]; 40 uM): 2.0
- F4, Firefly/Renilla for S/B(F4) > 3 ([1]; 1% FBS, 10 uM): 2.7
- Firefly, F4/pGL4 for S/B(F4) > 3 ([1]; 1% FBS, 10 uM): 1.8
- F4, Firefly/Renilla for S/B(F4) > 3 ([1]; 1% FBS, 40 uM): 1.9
- Firefly, F4/pGL4 for S/B(F4) > 3 ([1]; 1% FBS, 40 uM): 2.4
- F4, Firefly/Renilla for S/B(F4) > 3 ([1]; 10% FBS, 10 uM): 3.2
- Firefly, F4/pGL4 for S/B(F4) > 3 ([1]; 10% FBS, 10 uM): 2.1
- F4, Firefly/Renilla for S/B(F4) > 3 ([1]; 10% FBS, 40 uM): 2.1
- Firefly, F4/pGL4 for S/B(F4) > 3 ([1]; 10% FBS, 40 uM): 2.3
- Firefly, F4, 1% FBS, cmpd/DMSO (mean) ([1]; 1% FBS, 0.5 uM): 1.0 and 1.3
- Firefly, F4, 1% FBS, cmpd/DMSO (mean) ([1]; 1% FBS, 2 uM): 1.8 and 0.9
- Firefly, F4, 10% FBS, cmpd/DMSO (mean) ([1]; 10% FBS, 0.5 uM): 1.2
- Firefly, F4, 10% FBS, cmpd/DMSO (mean) ([1]; 10% FBS, 2 uM): 1.4 and 0.7
- Firefly LBD, cmpd/DMSO (mean) ([4]; 0.5 uM): 1.2
- Firefly LBD, cmpd/DMSO (mean) ([4]; 2 uM): 1.2
- Firefly LBD, cmpd/DMSO (mean) ([4]; 10 uM): 2.3
- Firefly LBD, cmpd/DMSO (mean) ([4]; 40 uM): 2.1
SMILES: Cc1cccc(CN[C@H]2CS(=O)(=O)C[C@@H]2S(=O)(=O)c2ccc(Cl)cc2)c1 [Compound D127]
- fold induction at 0.5 µM [2, 5]: 1
- fold induction at 2 µM [2, 5]: 1
- fold induction at 10 µM [2, 5]: 1.2
- fold induction at 40 µM [2, 5]: 1.3
- fold induction at 0.5 µM [2, 6]: 1.1
- fold induction at 2 µM [2, 6]: 1.2
- fold induction at 10 µM [2, 6]: 1.8
- fold induction at 40 µM [2, 6]: 1.5
- fold induction at 0.5 µM [2, 7]: 1
- fold induction at 2 µM [2, 7]: 1.1
- fold induction at 10 µM [2, 7]: 1.7
- fold induction at 0.5 µM ([3]; HEK293, 0.5 uM, pGL4, read-out: Firefly pGL4, cmpd/DMSO (mean)): 1
- fold induction at 2 µM ([3]; HEK293, 2 uM, pGL4, read-out: Firefly pGL4, cmpd/DMSO (mean)): 1.4
- fold induction at 10 µM ([3]; HEK293, 10 uM, pGL4, read-out: Firefly pGL4, cmpd/DMSO (mean)): 1.8
- fold induction at 40 µM ([3]; HEK293, 40 uM, pGL4, read-out: Firefly pGL4, cmpd/DMSO (mean)): 2.6
- fold induction at 0.5 µM ([3]; HEK293, pGL4, 1% FBS, 0.5 uM, read-out: Firefly, pGL4, 1% FBS, cmpd/DMSO (mean)): 1.3
- fold induction at 2 µM ([3]; HEK293, pGL4, 1% FBS, 2 uM, read-out: Firefly, pGL4, 1% FBS, cmpd/DMSO (mean)): 1.9
- fold induction at 10 µM ([3]; HEK293, pGL4, 1% FBS, 10 uM, read-out: Firefly, pGL4, 1% FBS, cmpd/DMSO (mean)): 2.7
- fold induction at 0.5 µM ([3]; HEK293, pGL4, 10% FBS, 0.5 uM, read-out: Firefly, pGL4, 10% FBS, cmpd/DMSO (mean)): 1.2
- fold induction at 2 µM ([3]; HEK293, pGL4, 10% FBS, 2 uM, read-out: Firefly, pGL4, 10% FBS, cmpd/DMSO (mean)): 1.7
- fold induction at 10 µM ([3]; HEK293, pGL4, 10% FBS, 10 uM, read-out: Firefly, pGL4, 10% FBS, cmpd/DMSO (mean)): 2.7
